Calls of active or inactive are those of the source.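 Rule for the calls: active = a rising curve with AC50 no higher than ten times the top valid dose of that compound; inconclusive = flat curve between 30 and 70 percent, or failed fit; inactive = the rest.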
Test system: INS-1E cytokine-induced apoptosis, JC-1 mitochondrial potential, 48 h
Assay: INS-1E mitochondrial potential loss inhibitors – cell-based, JC-1 fluorescence, dry powder, set 2, dose response (AID 488867)
Conditions: not given

For `Cc1ccc(S(=O)(=O)N(C)C[C@@H]2Oc3c(NC(=O)Nc4ccccc4)cccc3C(=O)N([C@@H](C)CO)C[C@H]2C)cc1`, which AC50 is on record?
Its AC50 is > 26 µM (inactive).

Which AC50 does the source give for `COc1ccc(S(=O)(=O)N(C)C[C@@H]2Oc3c(NC(=O)Nc4cccc5ccccc45)cccc3C(=O)N([C@H](C)CO)C[C@H]2C)cc1` here?
Its AC50 is > 23.5 µM (inactive).

For `COc1ccc(S(=O)(=O)N(C)C[C@@H]2Oc3c(NC(=O)Nc4ccccc4)cccc3C(=O)N([C@H](C)CO)C[C@H]2C)cc1`, which AC50 is on record?
The AC50 was > 26 µM (inactive).

For `COc1ccc(S(=O)(=O)N(C)C[C@H]2Oc3c(NC(=O)Nc4cccc5ccccc45)cccc3C(=O)N([C@@H](C)CO)C[C@@H]2C)cc1`, which AC50 is on record?
Its AC50 is > 26 µM (inactive).

Test system: not listed separately
Assay: as above
Conditions: INS-1E cytokine-induced apoptosis, JC-1 mitochondrial potential, 48 h; at 12 µM (top of the series)

With `C[C@@H]1CN([C@@H](C)CO)C(=O)c2cccc(NC(=O)Nc3cccc4ccccc34)c2O[C@H]1CN(C)S(=O)(=O)c1ccc2c(c1)OCCO2` as the compound, how does the protection from cytokine-induced depolarization read?
Its protection from cytokine-induced depolarization is 29.7% (inactive).

Same assay, conditions: INS-1E cytokine-induced apoptosis, JC-1 mitochondrial potential, 48 h; at 23.5 µM (top of the series)

Which protection from cytokine-induced depolarization does the source give for `C[C@@H]1CN([C@@H](C)CO)C(=O)c2cccc(NC(=O)Nc3cccc4ccccc34)c2O[C@H]1CN(C)C(=O)Nc1ccccc1` here?
The protection from cytokine-induced depolarization was 2.8% (inactive).

Same assay, conditions: INS-1E cytokine-induced apoptosis, JC-1 mitochondrial potential, 48 h; at 26 µM (top of the series)

Which protection from cytokine-induced depolarization does the source give for `Cc1ccc(S(=O)(=O)N(C)C[C@@H]2Oc3c(NC(=O)Nc4ccccc4)cccc3C(=O)N([C@H](C)CO)C[C@H]2C)cc1` here?
Its protection from cytokine-induced depolarization is 11.2% (inactive).

For `C[C@@H]1CN([C@H](C)CO)C(=O)c2cccc(NC(=O)Nc3ccccc3)c2O[C@H]1CN(C)S(=O)(=O)c1ccc(Cl)cc1`, which protection from cytokine-induced depolarization is on record?
The protection from cytokine-induced depolarization was 15.6% (inactive).

With `COc1ccc(S(=O)(=O)N(C)C[C@@H]2Oc3c(NC(=O)Nc4cccc5ccccc45)cccc3C(=O)N([C@H](C)CO)C[C@@H]2C)cc1` as the compound, how does the protection from cytokine-induced depolarization read?
The protection from cytokine-induced depolarization was -2.94% (inactive).

With `C[C@@H]1CN([C@@H](C)CO)C(=O)c2cccc(NC(=O)Nc3cccc4ccccc34)c2O[C@H]1CN(C)S(=O)(=O)c1ccc(F)cc1` as the compound, how does the protection from cytokine-induced depolarization read?
Its protection from cytokine-induced depolarization is 4.49% (inactive).

For `C[C@@H]1CN([C@@H](C)CO)C(=O)c2cccc(NC(=O)Nc3cccc4ccccc34)c2O[C@H]1CN(C)C(=O)Nc1ccc2c(c1)OCO2`, which protection from cytokine-induced depolarization is on record?
Its protection from cytokine-induced depolarization is -3.61% (inactive).

Which protection from cytokine-induced depolarization does the source give for `C[C@@H]1CN([C@@H](C)CO)C(=O)c2cccc(NC(=O)Nc3cccc4ccccc34)c2O[C@H]1CN(C)S(C)(=O)=O` here?
The protection from cytokine-induced depolarization was 2.48% (inactive).

With `C[C@@H]1CN([C@@H](C)CO)C(=O)c2cccc(NC(=O)Nc3cccc4ccccc34)c2O[C@H]1CN(C)S(=O)(=O)c1ccc2c(c1)OCCO2` as the compound, how does the protection from cytokine-induced depolarization read?
The protection from cytokine-induced depolarization was 26.8% (inactive).

Which protection from cytokine-induced depolarization does the source give for `C[C@@H]1CN([C@@H](C)CO)C(=O)c2cccc(NC(=O)Nc3cccc4ccccc34)c2O[C@H]1CN(C)S(=O)(=O)c1cccc(F)c1` here?
The protection from cytokine-induced depolarization was -9.88% (inactive).

With `COc1ccc(S(=O)(=O)N(C)C[C@H]2Oc3c(NC(=O)Nc4cccc5ccccc45)cccc3C(=O)N([C@H](C)CO)C[C@H]2C)cc1` as the compound, how does the protection from cytokine-induced depolarization read?
Its protection from cytokine-induced depolarization is -8.55% (inactive).

With `C[C@@H]1CN([C@H](C)CO)C(=O)c2cccc(NC(=O)Nc3ccccc3)c2O[C@H]1CN(C)S(=O)(=O)c1ccc(F)cc1` as the compound, how does the protection from cytokine-induced depolarization read?
The protection from cytokine-induced depolarization was 4.78% (inactive).

With `C[C@H]1CN([C@@H](C)CO)C(=O)c2cccc(NC(=O)NC3CCCCC3)c2O[C@@H]1CN(C)S(C)(=O)=O` as the compound, how does the protection from cytokine-induced depolarization read?
Its protection from cytokine-induced depolarization is -1.29% (inactive).

Which protection from cytokine-induced depolarization does the source give for `C[C@@H]1CN([C@@H](C)CO)C(=O)c2cccc(NC(=O)Nc3cccc4ccccc34)c2O[C@H]1CN(C)CC1CC1` here?
Its protection from cytokine-induced depolarization is 10.5% (inactive).

Which protection from cytokine-induced depolarization does the source give for `COc1ccc(S(=O)(=O)N(C)C[C@@H]2Oc3c(NC(=O)Nc4cccc5ccccc45)cccc3C(=O)N([C@@H](C)CO)C[C@H]2C)cc1F` here?
The protection from cytokine-induced depolarization was -3.4% (inactive).

For `C[C@@H]1CN([C@@H](C)CO)C(=O)c2cccc(NC(=O)Nc3cccc4ccccc34)c2O[C@H]1CN(C)S(=O)(=O)c1cn(C)cn1`, which protection from cytokine-induced depolarization is on record?
Its protection from cytokine-induced depolarization is 6.5% (inactive).

With `COc1ccc(S(=O)(=O)N(C)C[C@@H]2Oc3c(NC(=O)c4ccncc4)cccc3C(=O)N([C@@H](C)CO)C[C@H]2C)cc1` as the compound, how does the protection from cytokine-induced depolarization read?
Its protection from cytokine-induced depolarization is -1.06% (inactive).

Which protection from cytokine-induced depolarization does the source give for `COc1ccc(S(=O)(=O)N(C)C[C@@H]2Oc3c(NC(=O)Nc4c(C)noc4C)cccc3C(=O)N([C@@H](C)CO)C[C@H]2C)cc1` here?
The protection from cytokine-induced depolarization was 2.03% (inactive).

With `COc1ccc(S(=O)(=O)N(C)C[C@@H]2Oc3c(NC(=O)NC4CCCCC4)cccc3C(=O)N([C@@H](C)CO)C[C@H]2C)cc1` as the compound, how does the protection from cytokine-induced depolarization read?
The protection from cytokine-induced depolarization was 7.46% (inactive).

Which protection from cytokine-induced depolarization does the source give for `C[C@@H]1CN([C@@H](C)CO)C(=O)c2cccc(NS(=O)(=O)c3ccccc3)c2O[C@H]1CN(C)Cc1ccc(C(F)(F)F)cc1` here?
The protection from cytokine-induced depolarization was -2.49% (inactive).

With `COc1ccc(S(=O)(=O)N(C)C[C@@H]2Oc3c(NC(=O)Nc4cccc5ccccc45)cccc3C(=O)N([C@@H](C)CO)C[C@H]2C)cc1C` as the compound, how does the protection from cytokine-induced depolarization read?
Its protection from cytokine-induced depolarization is -8.34% (inactive).

Which protection from cytokine-induced depolarization does the source give for `COc1ccc(S(=O)(=O)N(C)C[C@@H]2Oc3c(NC(=O)Nc4ccc(F)cc4)cccc3C(=O)N([C@H](C)CO)C[C@H]2C)cc1` here?
Its protection from cytokine-induced depolarization is 10.8% (inactive).

Which protection from cytokine-induced depolarization does the source give for `COc1ccc(S(=O)(=O)N(C)C[C@@H]2Oc3c(NS(C)(=O)=O)cccc3C(=O)N([C@@H](C)CO)C[C@H]2C)cc1` here?
The protection from cytokine-induced depolarization was -7.47% (inactive).

For `COc1ccc(S(=O)(=O)N(C)C[C@@H]2Oc3c(NC(=O)Nc4cccc5ccccc45)cccc3C(=O)N(C(C)C)C[C@H]2C)cc1`, which protection from cytokine-induced depolarization is on record?
The protection from cytokine-induced depolarization was 36.6% (inactive).

With `C[C@@H]1CN([C@@H](C)CO)C(=O)c2cccc(NC(=O)Nc3cccc4ccccc34)c2O[C@H]1CN(C)S(=O)(=O)c1ccc2c(c1)OCO2` as the compound, how does the protection from cytokine-induced depolarization read?
Its protection from cytokine-induced depolarization is 32.4% (inactive).

With `COc1ccc(S(=O)(=O)Nc2cccc3c2O[C@@H](CN(C)S(=O)(=O)c2ccc(OC)cc2)[C@H](C)CN([C@@H](C)CO)C3=O)cc1` as the compound, how does the protection from cytokine-induced depolarization read?
The protection from cytokine-induced depolarization was 3.9% (inactive).

For `COc1ccc(NC(=O)N(C)C[C@@H]2Oc3c(NC(=O)Nc4cccc5ccccc45)cccc3C(=O)N([C@@H](C)CO)C[C@H]2C)cc1`, which protection from cytokine-induced depolarization is on record?
Its protection from cytokine-induced depolarization is 0.86% (inactive).

For `COc1ccc(S(=O)(=O)N(C)C[C@@H]2Oc3ccc(NC(=O)Nc4cccc5ccccc45)cc3C(=O)N([C@@H](C)CO)C[C@H]2C)cc1`, which protection from cytokine-induced depolarization is on record?
The protection from cytokine-induced depolarization was -12% (inactive).

Which protection from cytokine-induced depolarization does the source give for `COc1ccccc1S(=O)(=O)N(C)C[C@@H]1Oc2c(NC(=O)Nc3cccc4ccccc34)cccc2C(=O)N([C@@H](C)CO)C[C@H]1C` here?
Its protection from cytokine-induced depolarization is -3.43% (inactive).

For `COc1ccc(S(=O)(=O)N(C)C[C@@H]2Oc3c(NC(=O)c4ccc(-c5nccs5)cc4)cccc3C(=O)N([C@@H](C)CO)C[C@H]2C)cc1`, which protection from cytokine-induced depolarization is on record?
Its protection from cytokine-induced depolarization is -3.02% (inactive).

From PubChem BioAssay AID488867 (Broad Institute, 2010)
